Here are results for 16 compounds from US20260034111A1, “NOVEL HETEROCYCLES AS sPLA2-X INHIBITORS” (Cayman Chemical Company Incorporated, priority 2022, published 2026).

SMILES strings stand for the structures. Structures can show the parent of a compound that is named as a salt. Where two headings read alike, the source gives them in different places.

Common to all, as to type: biochemical
For assay [1], the target named is T1, recombinant human sPLA2-IIA enzyme (Homo sapiens, UniProt P14555).
T1 construct: made in house; host or cells: E. coli
T1 sequence (P14555 21-144): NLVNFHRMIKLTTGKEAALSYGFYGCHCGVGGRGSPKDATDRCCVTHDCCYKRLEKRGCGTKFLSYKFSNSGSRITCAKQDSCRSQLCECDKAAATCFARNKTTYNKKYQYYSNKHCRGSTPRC
Nature of the assay: sPLA2-IIA enzyme inhibition assay (thio-PC substrate, DTNB detection, absorbance 410 nm). To be noted: class symbols. The source says:
(§1) Screening Compounds for Inhibition of sPLA2-X, sPLA2-V, and sPLA2-IIA Enzyme Activity
(§2) These sPLA2 enzymes hydrolyze the sn-2 acyl chains of glycerophospholipids, resulting in the release of a free fatty acid and a lysophospholipid. In the case of the thio-PC substrate, this enzymatic hydrolysis results in a free sulfhydryl group remaining on the lysophospholipid. This free sulfhydryl reacts with DTNB to produce the chromogenic product 5-nitro-2-thiobenzoic acid (TNB) which can be quantitated by absorbance at 410 nm. The amount of TNB produced reflects the hydrolytic activity of the enzyme.
(§3) The recombinant human sPLA2 groups IIA, V, and X enzymes were expressed in E. coli and purified to >90% purity by standard biochemical methods.
(§4) Procedure of Enzyme Inhibition for sPLA2-X • 1. […] Dilute the test compounds in 100% DMSO by half-log steps in a 96-well dilution plate using columns 1-11 (one compound per row). Column 12 contains DMSO alone with no compound. • 3. Prepare a 3.5 mM thio-PC substrate solution by drying down 7.2 mg of stock thio-PC in ethanol under a gentle stream of N2 gas. When dry, add 4 mL assay buffer (25 mM Tris, pH7.4; 100 mM KCl; 10 mM CaCl2; 0.1% Triton X-100) and warm in a 37° C. water bath for 20 minutes with intermittent vortexing. • 4. Prepare an “enzyme containing” reaction mix with the following components: 20.4 mL assay buffer; 2 mL DTNB (20 mM in 800 mM Tris, pH8.0); and 11.8 mg recombinant human sPLA2-X enzyme (>95% pure) diluted to a total of 0.8 mL assay buffer. • 5. Prepare a “no enzyme” reaction mix with the following components: 477 μL assay buffer and 45 μL DTNB. • 6. Dispense 58 μL “no enzyme” reaction mix into each of 8 wells (columns 23 and 24, rows M-P). • 7. Dispense 58 μL “enzyme containing” reaction mix into all remaining wells on the plate. • 8. From the 96-well compound dilution plate, add 2 μL from each well for each compound to each of 4 wells with “enzyme containing” reaction mix. Columns 23 and 24 on the assay plate will contain only DMSO (vehicle control). […] After compound addition, mix the contents of each well to ensure that the DMSO is evenly distributed in the well. • 9. Cover the plate and incubate in the dark at room temperature for 15 minutes. • 10. Add 10 μL of thio-PC substrate to all wells. The final concentration of thio-PC in the reactions is 0.5 mM. • 11. Cover the plate and incubate in the dark at room temperature for 30 minutes. • 12. Measure the absorbance of all wells at 410 nm. • 13. Determine the mean absorbance of the “no enzyme” wells. Subtract this value from the absorbance values determined for all other wells (these are now background corrected data). • 14. […] Procedure of Enzyme Inhibition for sPLA2-V • 1. […] Dilute the test compounds in 100% DMSO by half-log steps in a 96-well dilution plate using columns 1-11. Column 12 contains DMSO alone with no compound. • 3. Prepare a 3.5 mM thio-PC substrate solution by drying down 7.2 mg of stock thio-PC in ethanol under a gentle stream of N2 gas. When dry, add 4 mL assay buffer (25 mM Tris, pH7.4; 100 mM KCl; 10 mM CaCl2; 0.1% Triton X-100) and warm in a 37° C. water bath for 20 minutes with intermittent vortexing. • 4. Prepare an “enzyme containing” reaction mix with the following components: 20.4 mL assay buffer; 2 mL DTNB (20 mM in 800 mM Tris, pH8.0); and 12 mg recombinant human sPLA2-V enzyme (>95% pure) diluted to a total of 0.8 mL assay buffer. • 5. Prepare a “no enzyme” reaction mix with the following components: 477 μL assay buffer and […]. • 6. Dispense 58 μL “no enzyme” reaction mix into each of 8 wells (columns 23 and 24, rows M-P). • 7. Dispense 58 μL “enzyme containing” reaction mix into all remaining wells on the plate. • 8. From the 96-well compound dilution plate, add 2 μL from each well for each compound to each of 4 wells with “enzyme containing” reaction mix. Columns 23 and 24 on the assay plate will contain only DMSO (vehicle control).

For assay [2], the target named is T2, recombinant human sPLA2-V enzyme (Homo sapiens, UniProt P39877).
T2 construct: made in house; host or cells: E. coli
T2 sequence (P39877 21-138): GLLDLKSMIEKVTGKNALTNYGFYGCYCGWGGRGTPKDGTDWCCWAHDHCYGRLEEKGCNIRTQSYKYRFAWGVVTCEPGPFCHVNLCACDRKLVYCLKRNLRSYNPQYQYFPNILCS
Nature of the assay: sPLA2-V enzyme inhibition assay (thio-PC substrate, DTNB detection, absorbance 410 nm).
Source text: as §1, §2, §3, §4

Another assay deals with T3, sPLA2-X protein (Homo sapiens, UniProt O15496).
T3 sequence (O15496 43-165): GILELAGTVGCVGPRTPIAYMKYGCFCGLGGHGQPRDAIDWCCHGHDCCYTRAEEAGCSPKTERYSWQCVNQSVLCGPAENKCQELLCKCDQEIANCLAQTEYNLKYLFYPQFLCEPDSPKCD
Nature of the assay: sPLA2-X enzyme inhibition assay (thio-PC substrate, DTNB detection, absorbance 410 nm). The arrangement: made in house; host or cells: E. coli. Conditions: class symbols.
Source text: as §1, §2, §3, §4

Where [3] appears, read: read-out: sPLA2 Type IIa Inhibition (IC50; nM).
Where [4] appears, read: class symbols, read-out: sPLA2 Type V Inhibition (IC50; nM).
The mark [5] stands for this setting: read-out: sPLA2 Type X Inhibition (IC50; nM).

In the case of `NC(=O)c1cc2ccc(OC(F)(F)F)cc2n1-c1cccc(C2(CC(=O)O)CCC2)c1` [Compound 30, 2-(1-(3-(2-carbamoyl-6-(trifluoromethoxy)-1H-indol-1-yl)phenyl)cyclobutyl)acetic acid], the half-maximal inhibitory concentration (IC50) in assay [1] (setting [3]) is more than 1000 nM; in assay [2] (setting [4]) it was 1500 to 5000 nM; on sPLA2-X protein (setting [5]), less than 20 nM.

Regarding `NC(=O)c1[se]c2ccc(OC(F)(F)F)cc2c1-c1cccc(C2CC2C(=O)O)n1` (racemic) [Compound 55, trans-(rac)-2-(6-(2-carbamoyl-5-(trifluoromethoxy)benzo[b]selenophen-3-yl)pyridin-2-yl)cyclopropane-1-carboxylic acid], the IC50 was more than 1000 nM in assay [1] (sPLA2 Type IIa Inhibition (IC50; nM)); more than 5000 nM in assay [2] (sPLA2 Type V Inhibition (IC50; nM), class symbols); more than 200 nM against sPLA2-X protein (sPLA2 Type X Inhibition (IC50; nM)).

As to `NC(=O)c1cc2ccc(OC(F)(F)F)cc2n1-c1ccc2c(c1)OCC2CC(=O)O` (stereo not shown) [Compound 9, 2-(6-(2-carbamoyl-6-(trifluoromethoxy)-1H-indol-1-yl)-2,3-dihydrobenzofuran-3-yl)acetic acid], the IC50 is more than 1000 nM in assay [1] (setting [3]), more than 5000 nM in assay [2] (setting [4]) and more than 200 nM on sPLA2-X protein (setting [5]).

As for `COc1cnc2cc(C(N)=O)n(-c3cccc(C4CC4C(=O)O)n3)c2c1` (single isomer, unassigned) [Compound 51, trans-2-(6-(2-carbamoyl-6-methoxy-1H-pyrrolo[3,2-b]pyridin-1-yl)pyridin-2-yl)cyclopropane-1-carboxylic acid], the results for the IC50 (in assay [1] (setting [3]); in assay [2] (setting [4]); on sPLA2-X protein (setting [5])) were more than 1000 nM, more than 5000 nM and more than 200 nM, respectively.

With `NC(=O)c1cc2ccc(OC(F)(F)F)cc2n1-c1cccc(C[C@@H](N)C(=O)O)c1` [Compound 23, (R)-2-amino-3-(3-(2-carbamoyl-6-(trifluoromethoxy)-1H-indol-1-yl)phenyl)propanoic acid TFA salt], the IC50 is more than 1000 nM in assay [1] (setting [3]), more than 5000 nM in assay [2] (setting [4]) and more than 200 nM on sPLA2-X protein (setting [5]).

Take `NC(=O)c1cc2ccc(OC(F)(F)F)cc2n1-c1ccc2c(c1)C(CC(=O)O)CO2` (single isomer, unassigned; (+)) [Compound 1a, (+)-2-(5-(2-carbamoyl-6-(trifluoromethoxy)-1H-indol-1-yl)-2,3-dihydrobenzofuran-3-yl)acetic acid]: the IC50 in assay [1] (setting [3]) was more than 1000 nM; in assay [2] (setting [4]) it was more than 5000 nM; on sPLA2-X protein (setting [5]), 50 to 200 nM.

In the case of `NC(=O)c1sc2ccc(OC(F)(F)F)cc2c1-c1cccc(C2CC2C(=O)O)n1` (racemic) [Compound 54, trans-(rac)-2-(6-(2-carbamoyl-5-(trifluoromethoxy)benzo[b]thiophen-3-yl)pyridin-2-yl)cyclopropane-1-carboxylic acid], the concentration for half-maximal inhibition (IC50) in assay [1] (setting [3]) is more than 1000 nM; in assay [2] (setting [4]), more than 5000 nM; on sPLA2-X protein (setting [5]), 50 to 200 nM.

Consider `NC(=O)c1sc2ccc(OC(F)(F)F)cc2c1-c1cccc(C2(CC(=O)O)CC2)c1` [Compound 36, 2-(1-(3-(2-carbamoyl-5-(trifluoromethoxy)benzo[b]thiophen-3-yl)phenyl)cyclopropyl)acetic acid], for which the values for the IC50 (in assay [1] (setting [3]); in assay [2] (setting [4]); on sPLA2-X protein (setting [5])) were more than 1000 nM, 500 to 1500 nM and less than 20 nM, respectively.

As to `NC(=O)c1cc2ccc(OC(F)(F)F)cc2n1-c1cccc(CNC(=O)C(F)(F)F)n1` [Compound 37, 1-(6-((2,2,2-trifluoroacetamido)methyl)pyridin-2-yl)-6-(trifluoromethoxy)-1H-indole-2-carboxamide], the values for the IC50 (in assay [1] (setting [3]); in assay [2] (setting [4]); on sPLA2-X protein (setting [5])) were more than 1000 nM, more than 5000 nM and more than 200 nM, respectively.

Consider `NC(=O)c1cc2ccc(OC(F)(F)F)cc2n1-c1cccc(CCC(=O)O)n1` [Compound 18, 3-(6-(2-carbamoyl-6-(trifluoromethoxy)-1H-indol-1-yl)pyridin-2-yl)propanoic acid], for which the IC50 in assay [1] (setting [3]) is more than 1000 nM; in assay [2] (setting [4]), 1500 to 5000 nM; at sPLA2-X protein (setting [5]), less than 20 nM.

With `C[C@]1(c2cccc(-n3c(C(N)=O)cc4ccc(OC(F)(F)F)cc43)c2)C[C@H]1C(=O)O` (relative stereo) [Compound 38a, cis-2-(3-(2-carbamoyl-6-(trifluoromethoxy)-1H-indol-1-yl)phenyl)-2-methylcyclopropane-1-carboxylic acid], the IC50 was 200 to 500 nM in assay [1] (setting [3]), less than 500 nM in assay [2] (setting [4]) and less than 20 nM at sPLA2-X protein (setting [5]).

For `NC(=O)c1cc2ccc(OC(F)(F)F)cc2n1-c1ccc2c(c1)C(CC(=O)O)CO2` (single isomer, unassigned; (-)) [Compound 1b, (−)-2-(5-(2-carbamoyl-6-(trifluoromethoxy)-1H-indol-1-yl)-2,3-dihydrobenzofuran-3-yl)acetic acid], the IC50 in assay [1] (setting [3]) is more than 1000 nM; on sPLA2-X protein (setting [5]), more than 200 nM.

On to `CC(C)(C)OC(=O)N1CC(CC(=O)O)c2cc(-n3c(C(N)=O)cc4ccc(OC(F)(F)F)cc43)ccc21` (stereo not shown) [Compound 11, 2-(1-(tert-butoxycarbonyl)-5-(2-carbamoyl-6-(trifluoromethoxy)-1H-indol-1-yl)indolin-3-yl)acetic acid], for which the IC50 is more than 1000 nM in assay [1] (setting [3]), more than 5000 nM in assay [2] (setting [4]) and 50 to 200 nM at sPLA2-X protein (setting [5]).

`NC(=O)c1cc2ccc(OC(F)(F)F)cc2n1-c1ccc2occ(C(=O)O)c2c1` [Compound 20, 5-(2-carbamoyl-6-(trifluoromethoxy)-1H-indol-1-yl)benzofuran-3-carboxylic acid]: the IC50 is more than 1000 nM in assay [1] (setting [3]), more than 5000 nM in assay [2] (setting [4]) and more than 200 nM on sPLA2-X protein (setting [5]).

As to `NC(=O)c1sc2ccc(OC(F)(F)F)cc2c1-c1ccc2c(c1)C(CC(=O)O)CO2` (stereo not shown) [Compound 7, 2-(5-(2-carbamoyl-5-(trifluoromethoxy)benzo[b]thiophen-3-yl)-2,3-dihydrobenzofuran-3-yl)acetic acid], the values for the IC50 (in assay [1] (setting [3]); in assay [2] (setting [4]); on sPLA2-X protein (setting [5])) were more than 1000 nM, more than 5000 nM and more than 200 nM, respectively.

For `CCc1c(C(=O)C(N)=O)c2c(OCC(=O)O)cccc2n1Cc1ccccc1` [LY315920, Varespladib, reference compound], the IC50 in assay [2] (IC50 value for positive control, sPLA2-V, value the positive control should give per the procedure) was approximately 100 nM; in assay [2] (numeric value, control, read-out: sPLA2 Type V Inhibition (IC50; nM)), 124 nM.

Usually IC50 stands for the point on the concentration scale where inhibition reaches its midpoint.
